Assays:
[1] = tested on: MCF-7; assay: Cytotoxicity MTS assay; format: cell-based, human; conditions: 0.03 to 30 μM; no immunodetectable c-Met or phospho-c-Met
Method: (§1) Various cancer cell lines were treated with (−)-trans-3-(5,6-dihydro-4H-pyrrolo[3,2,1-ij]quinolin-1-yl)-4-(1H-indol-3-yl)pyrrolidine-2,5-dione at indicated concentrations ranging from 0.03 to 30 μM. The sensitivity of these cells to (−)-trans-3-(5,6-dihydro-4H-pyrrolo[3,2,1-ij]quinolin-1-yl)-4-(1H-indol-3-yl)pyrrolidine-2,5-dione was measured by a standard cytoxicity MTS assay (FIG. 10). Human cancer cell lines expressing c-Met and/or phospho-c-Met were sensitive to (−)-trans-3-(5,6-dihydro-4H-pyrrolo[3,2,1-ij]quinolin-1-yl)-4-(1H-indol-3-yl)pyrrolidine-2,5-dione.

[2] = tested on: SK-MEL-28; assay: Cytotoxicity MTS assay; format: cell-based, human; conditions: 0.03 to 30 μM; no immunodetectable c-Met or phospho-c-Met
Method: as §1

[3] = tested on: NCI-H661; assay: Cytotoxicity MTS assay; format: cell-based, human; conditions: 0.03 to 30 μM; no immunodetectable c-Met or phospho-c-Met
Method: as §1

[4] = biological target: T1, c-Met (Homo sapiens, UniProt P08581); assay: c-Met in tumor biopsies from treated patients; format: in vivo; design: the c-Met protein in tumor biopsies from patients; from tissue; host or cells: tumour biopsies from treated patients; conditions: patients treated with the drug
T1 sequence (P08581 25-1390): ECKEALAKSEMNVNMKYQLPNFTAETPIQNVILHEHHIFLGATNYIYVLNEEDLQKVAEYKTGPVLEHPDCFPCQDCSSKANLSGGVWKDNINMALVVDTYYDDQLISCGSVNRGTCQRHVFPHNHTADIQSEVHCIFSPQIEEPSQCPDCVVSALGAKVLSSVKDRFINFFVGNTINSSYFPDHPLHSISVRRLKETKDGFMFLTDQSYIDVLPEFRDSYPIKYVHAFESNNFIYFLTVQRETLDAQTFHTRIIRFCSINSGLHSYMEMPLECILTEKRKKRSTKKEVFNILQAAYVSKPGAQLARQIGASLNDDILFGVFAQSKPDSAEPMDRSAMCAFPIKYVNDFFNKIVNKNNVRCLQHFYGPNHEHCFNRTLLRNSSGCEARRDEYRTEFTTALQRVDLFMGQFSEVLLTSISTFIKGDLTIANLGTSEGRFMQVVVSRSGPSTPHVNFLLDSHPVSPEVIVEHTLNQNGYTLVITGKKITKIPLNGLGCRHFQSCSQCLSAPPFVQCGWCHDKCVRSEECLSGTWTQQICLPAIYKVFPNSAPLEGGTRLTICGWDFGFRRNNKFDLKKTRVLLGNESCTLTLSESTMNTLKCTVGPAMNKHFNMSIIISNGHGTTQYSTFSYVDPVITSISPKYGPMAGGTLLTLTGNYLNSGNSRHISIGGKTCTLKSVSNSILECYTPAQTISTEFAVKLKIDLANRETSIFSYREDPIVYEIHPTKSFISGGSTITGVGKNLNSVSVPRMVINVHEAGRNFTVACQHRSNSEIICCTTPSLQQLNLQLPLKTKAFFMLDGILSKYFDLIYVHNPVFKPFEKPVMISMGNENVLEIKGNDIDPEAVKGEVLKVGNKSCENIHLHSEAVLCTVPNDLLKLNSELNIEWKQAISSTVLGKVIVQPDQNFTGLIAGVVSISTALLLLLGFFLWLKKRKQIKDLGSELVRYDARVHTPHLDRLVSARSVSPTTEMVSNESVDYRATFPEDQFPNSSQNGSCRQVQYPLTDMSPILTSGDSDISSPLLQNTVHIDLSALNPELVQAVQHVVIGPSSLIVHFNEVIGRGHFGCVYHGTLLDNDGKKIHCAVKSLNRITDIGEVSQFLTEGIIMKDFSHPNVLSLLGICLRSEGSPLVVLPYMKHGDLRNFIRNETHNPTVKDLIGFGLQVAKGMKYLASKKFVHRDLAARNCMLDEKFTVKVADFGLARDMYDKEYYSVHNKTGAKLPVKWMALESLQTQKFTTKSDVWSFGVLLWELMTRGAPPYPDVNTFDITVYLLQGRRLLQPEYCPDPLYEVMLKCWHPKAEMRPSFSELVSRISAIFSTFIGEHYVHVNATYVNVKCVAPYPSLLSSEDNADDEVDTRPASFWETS

[5] = tested on: panel (n=230) of human kinases; assay: Large panel (n=230) of human kinases; format: biochemical; conditions: n=230 human kinases
Method: (§2) (−)-trans-3-(5,6-dihydro-4H-pyrrolo[3,2,1-ij]quinolin-1-yl)-4-(1H-indol-3-yl)pyrrolidine-2,5-dione was assessed for its activity to inhibit a large panel (n=230) of human kinases.

[6] = biological target: PAK3 (Homo sapiens, UniProt O75914); assay: Kinase panel inhibition, PAK3; format: biochemical
PAK3, sequence (O75914 whole entry): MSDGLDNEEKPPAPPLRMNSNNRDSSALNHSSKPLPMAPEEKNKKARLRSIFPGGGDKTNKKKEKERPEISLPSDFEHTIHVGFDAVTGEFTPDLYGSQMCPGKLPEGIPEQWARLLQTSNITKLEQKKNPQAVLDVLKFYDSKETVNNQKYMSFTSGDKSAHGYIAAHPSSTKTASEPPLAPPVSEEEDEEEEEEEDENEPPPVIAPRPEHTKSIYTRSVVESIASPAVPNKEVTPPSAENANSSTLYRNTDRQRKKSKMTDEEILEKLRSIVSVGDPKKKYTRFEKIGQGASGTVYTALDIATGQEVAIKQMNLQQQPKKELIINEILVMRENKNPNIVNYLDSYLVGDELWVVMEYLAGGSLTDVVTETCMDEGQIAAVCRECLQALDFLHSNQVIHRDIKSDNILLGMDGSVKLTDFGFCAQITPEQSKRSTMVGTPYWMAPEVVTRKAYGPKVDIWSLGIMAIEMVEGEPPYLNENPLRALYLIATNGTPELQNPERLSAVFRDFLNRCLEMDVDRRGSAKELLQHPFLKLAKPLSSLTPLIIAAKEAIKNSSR
Method: as §2

[7] = tested on: human pancreatic cancer MIA PaCa2; assay: Human pancreatic cancer xenograft; format: in vivo; conditions: monotherapy
Method: The efficacy of (−)-trans-3-(5,6-dihydro-4H-pyrrolo[3,2,1-ij]quinolin-1-yl)-4-(1H-indol-3-yl)pyrrolidine-2,5-dione was also tested in xenograft models with several other cancer cell lines: human pancreatic cancer MIA PaCa2 (FIG. 9, Panel B), human prostate cancer PC3 (FIG. 9, Panel C) and human gastric cancer MKN45 (FIG. 9, Panel D). The cells were treated with (−)-trans-3-(5,6-dihydro-4H-pyrrolo[3,2,1-ij]quinolin-1-yl)-4-(1H-indol-3-yl)pyrrolidine-2,5-dione as a monotherapy at indicated concentrations.

[8] = biological target: T1, c-Met; assay: c-Met phosphorylation in MDA-MB-231 cells, basal and HGF-induced (Western blot); format: cell-based; design: Whole cell extracts were prepared in lysis buffer; endogenous in cells; host or cells: MDA-MB-231; conditions: serum-deprived 16 hours, 100 ng/ml HGF/SF for 10 minutes
Method: MDA-MB-231 cells were serum-deprived overnight (16 hours) in the absence or in the presence of the indicated concentrations of the separate enantiomers (+)-trans-3-(5,6-dihydro-4H-pyrrolo[3,2,1-ij]quinolin-1-yl)-4-(1H-indol-3-yl)pyrrolidine-2,5-dione and (−)-trans-3-(5,6-dihydro-4H-pyrrolo[3,2,1-ij]quinolin-1-yl)-4-(1H-indol-3-yl)pyrrolidine-2,5-dione. Cells were treated with 100 ng/ml recombinant human Hepatocyte Growth Factor/Scatter Factor (HGF/SF) (R&D Systems #294-HG) for 10 minutes. Whole cell extracts were prepared in lysis buffer (20 mM Tris-HCl pH 7.5, 150 mM NaCl, 1 mM Na2EDTA, 1 mM EGTA, 1% Triton X-100, 2.5 mM sodium pyrophosphate, 1 mM beta-glycerophosphate, 1 mM Na3VO4, 1 μg/ml leupeptin, 1 mM phenylmethylsulfonyl fluoride) and sonicated. Protein concentration was measured by Bradford assay using the BioRad reagent (BioRad, Hercules, Calif.), according to the manufacturer's directions. Samples ([…] of protein) were resolved by 8% SDS-PAGE under reducing conditions and transferred onto a PVDF membrane (BioRad). […] Proteins were detected by incubation overnight at 4° C. in TBS-T with 5% milk and either a polyclonal antibody against phosphorylated c-Met (#3121) or a monoclonal antibody against β-actin (A-5441) (Sigma), which was used as a control for total protein loading. […]

[9] = tested on: clear cell sarcoma and MiT-associated tumors; assay: Clinical study in patients with clear cell sarcoma and MiT-associated tumors; format: in vivo, human
Description: The present example describes the inhibition of c-Met Receptor Tyrosine Kinase in Clear Cell Sarcoma and MiT (Microphthalmia Transcription Factor)-Associated Tumors. […] The studies described in the present example used (−)-trans-3-(5,6-dihydro-4H-pyrrolo[3,2,1-ij]quinolin-1-yl)-4-(1H-indol-3-yl)pyrrolidine-2,5,-dione, a small molecule inhibitor of the c-Met receptor tyrosine kinase.
(−)-trans-3-(5,6-dihydro-4H-pyrrolo[3,2,1-ij]quinolin-1-yl)-4-(1H-indol-3-yl)pyrrolidine-2,5,-dione was administered to a patient with clear cell sarcoma. […]
(−)-trans-3-(5,6-dihydro-4H-pyrrolo[3,2,1-ij]quinolin-1-yl)-4-(1H-indol-3-yl)pyrrolidine-2,5,-dione is administered to patients with MiT (Microphthalmia Transcription Factor)-associated tumors. MiT tumors, which can include clear cell sarcoma (CCS), alveolar soft part sarcoma (ASPS) and translocation-associated renal cell carcinoma (RCC), are linked biologically through a common chromosomal abnormality that is responsible for the overexpression of c-Met resulting in the development of these tumors. Tumors with this abnormality are resistant to current therapies and, in the absence of successful surgical resection, are invariably fatal.

[10] = tested on: tumors; assay: Clinical studies (tolerability and tumor responses); format: in vivo, human
Description: (−)-trans-3-(5,6-dihydro-4H-pyrrolo[3,2,1-ij]quinolin-1-yl)-4-(1H-indol-3-yl)pyrrolidine-2,5,-dione is a selective inhibitor of c-Met, a receptor tyrosine kinase. When abnormally activated, c-Met plays multiple roles in aspects of human cancer, including cancer cell growth, survival, angiogenesis, invasion and metastasis.

[11] = biological target: Flt4 (Homo sapiens, UniProt P35916); assay: Kinase panel inhibition, Flt4; format: biochemical
Flt4, sequence (P35916 25-1363): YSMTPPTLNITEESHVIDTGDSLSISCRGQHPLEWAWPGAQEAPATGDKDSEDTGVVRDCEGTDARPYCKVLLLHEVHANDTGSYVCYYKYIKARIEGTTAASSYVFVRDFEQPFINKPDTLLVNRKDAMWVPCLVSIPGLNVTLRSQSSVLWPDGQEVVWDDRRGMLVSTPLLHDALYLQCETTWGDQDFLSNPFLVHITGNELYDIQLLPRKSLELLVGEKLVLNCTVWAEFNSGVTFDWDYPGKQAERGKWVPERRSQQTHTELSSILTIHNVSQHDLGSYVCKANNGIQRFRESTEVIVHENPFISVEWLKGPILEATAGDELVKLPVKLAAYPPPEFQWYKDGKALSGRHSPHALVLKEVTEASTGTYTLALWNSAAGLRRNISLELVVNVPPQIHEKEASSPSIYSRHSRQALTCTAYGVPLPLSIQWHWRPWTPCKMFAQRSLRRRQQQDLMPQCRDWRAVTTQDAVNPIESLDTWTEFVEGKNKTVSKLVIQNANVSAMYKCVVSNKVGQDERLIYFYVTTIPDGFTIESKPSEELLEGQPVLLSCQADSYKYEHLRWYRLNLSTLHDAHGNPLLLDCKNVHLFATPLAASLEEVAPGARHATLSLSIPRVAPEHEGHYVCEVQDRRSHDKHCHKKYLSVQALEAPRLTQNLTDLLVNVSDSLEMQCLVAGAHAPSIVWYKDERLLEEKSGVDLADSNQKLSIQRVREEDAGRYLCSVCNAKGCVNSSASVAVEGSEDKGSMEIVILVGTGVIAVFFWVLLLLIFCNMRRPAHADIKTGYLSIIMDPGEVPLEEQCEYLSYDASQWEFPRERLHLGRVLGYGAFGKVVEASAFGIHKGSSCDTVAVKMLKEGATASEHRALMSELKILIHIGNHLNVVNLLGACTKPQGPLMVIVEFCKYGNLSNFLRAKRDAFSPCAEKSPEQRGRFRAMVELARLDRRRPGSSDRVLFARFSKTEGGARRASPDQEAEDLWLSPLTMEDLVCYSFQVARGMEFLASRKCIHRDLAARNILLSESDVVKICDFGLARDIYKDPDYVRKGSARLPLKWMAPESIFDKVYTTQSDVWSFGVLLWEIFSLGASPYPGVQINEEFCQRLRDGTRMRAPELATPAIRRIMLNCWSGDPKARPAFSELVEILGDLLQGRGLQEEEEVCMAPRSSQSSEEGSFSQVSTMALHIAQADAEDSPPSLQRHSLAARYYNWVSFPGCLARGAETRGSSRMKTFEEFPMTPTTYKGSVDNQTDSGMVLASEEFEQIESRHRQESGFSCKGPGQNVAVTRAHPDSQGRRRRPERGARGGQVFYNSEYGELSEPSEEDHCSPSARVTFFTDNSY
Method: as §2

IC50 [6]: ~6.6 µM
concentration that inhibits both basal and HGF-induced autophosphorylation of c-Met [8]: at least 30 nM
IC50 [11]: ~16 µM
SMILES: O=C1NC(=O)[C@@H](c2cn3c4c(cccc24)CCC3)[C@@H]1c1c[nH]c2ccccc12 (single isomer, unassigned) [(−)-trans-3-(5,6-dihydro-4H-pyrrolo[3,2,1-ij]quinolin-1-yl)-4-(1H-indol-3-yl)pyrrolidine-2,5-dione]
sensitivity (cytotoxicity MTS assay) [1]: little sensitivity
sensitivity (cytotoxicity MTS assay) [2]: little sensitivity
sensitivity (cytotoxicity MTS assay) [3]: little sensitivity
inhibition of c-Met protein in tumor biopsies [4]: ability to inhibit the c-Met protein in tumor biopsies
kinase selectivity in panel [5]: inhibited only c-Met to a significant degree
tumor growth [7]: significantly inhibited tumor growth
patients with stable disease ([9]; 120 mg b.i.d., 23 patients enrolled, fourteen evaluable for efficacy): ten of the evaluable patients have demonstrated stable disease
response as defined by RECIST ([9]; a patient with clear cell sarcoma): partial response
tumor responses in clinical studies ([10]; broad ranges of tumors and doses): tumor responses and prolonged stable disease
tolerability in clinical studies ([10]; human, in vivo): well tolerated

From patent publication US8871933B2, “Purified pyrroloquinolinyl-pyrrolidine-2,5-dione compositions and methods for preparing and using same” (ArQule, Inc., priority 2009, dated 2014)
